Test [1] addresses BCL6 BTB domain (Homo sapiens (Human), UniProt P41182). Put plainly: Surface plasmon resonance (SPR) assay. In kind it is binding. Conditions: BCL6 BTB domain captured on SA chip, single cycle kinetics. For orientation: In SPR one partner is held on a chip, and binding of the other changes the refractive index at the surface.
Test [2] relates to BCL6 reporter construct (3xBCL6-TK-Luc) in SuDHL4 cells. Put plainly: Cell-based luciferase assay. In a few lines: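 SuDHL4 cells stably carrying a 3×BCL6-site TK-promoter firefly luciferase reporter, seeded at 15,000 cells/well, were dosed over a 10-point range (top 10 uM) and grown two days at 37 °C, 5% CO2. Luminescence then read after adding neolite reagent at room temperature.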

Test [3] relates to Karpas422 cells. The test can be described thus: Tumor cell growth inhibition assay. The format is cell-based. In short, it runs like this: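 Growth inhibition was measured by ATPlite luminescence after six days of culture at 37° C. in 5% CO2. Karpas422 cells were seeded at 2,000 per well in Alpha-MEM plus 10% FBS. Compounds were given as a 10-point concentration series with a highest dose of 5 uM.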

Setting [4] is: Homo sapiens, SU-DHL-4, 48 h, read-out: Luciferase-Assay EC50, uM), SuDHL4-3xBCL6-TK-Luc cells, two days, high dose 10 uM.
The mark [5] stands for this setting: Homo sapiens, KARPAS-422, 144 h, read-out: Tumor Growth Inhibition in Karpas-422 (IC50, uM), Karpas422 cells, six days, ATPlite.

Read-outs that look alike come from different tables or passages of the source.

By Kd is commonly meant the concentration at which binding is half-saturated. A high value points to a looser complex. In general, EC50 refers to the concentration giving half of the maximal effect. In general, IC50 refers to the midpoint of a concentration-inhibition curve. In turn, `COCCN1CCN(c2cc(NC(=O)Cn3cc(-c4cc(C(N)=O)c(O)c(F)c4F)c4c(=O)n(C)cnc43)c(Cl)c(F)n2)[C@@H](C)C1` [Compound I-446] yielded a Kd in test [1] of 0.00729 µM. For the same molecule, the EC50 in test [2] (setting [4]) worked out at 0.157 µM. Besides, the IC50 in test [3] (setting [5]) came to 0.137 µM.

In test [1], `Cc1nc2c(c(-c3cc(Cl)c(O)c(C(N)=O)c3)cn2CC(=O)Nc2cc(N3CCN(C)C[C@@H]3C)nc(F)c2Cl)c(=O)n1C` [Compound I-373] returned a Kd of 0.00596 µM. Also, the half-maximal effective concentration (EC50) in test [2] (setting [4]) came to 0.0803 µM. Also, the 50% inhibitory concentration (IC50) in test [3] (setting [5]) was found to be 0.105 µM.

`COc1c(O)c(C(N)=O)cc(-c2cn(CC(=O)Nc3cc(N4C[C@@H](C)N[C@@H](C)C4)ncc3Cl)c3ncn(C)c(=O)c23)c1F` [Compound I-193]: in test [1], the dissociation constant (Kd) was determined as 0.229 µM. In addition, in test [2] (setting [4]), the EC50 was 5.39 µM. Further, the IC50 in test [3] (setting [5]) turned out to be 2.66 µM.

`Cn1cnc2c(c(-c3cc(C(N)=O)c(O)cc3F)cn2CC(=O)Nc2cc(N3CC4CCC(C3)O4)ncc2Cl)c1=O` [Compound I-162] yielded a Kd in test [1] of 0.0847 µM. Also, in test [2] (setting [4]), the EC50 is 0.676 µM. Moreover, the IC50 in test [3] (setting [5]) came to 0.643 µM.

Consider `C[C@H]1CN(CC2CC2)CCN1c1cc(NC(=O)Cn2cc(-c3cc(Cl)c(O)c(C(N)=O)c3)c3c(=O)n(C)c(C(F)(F)F)nc32)c(Cl)cn1` [Compound I-343], for which the dissociation constant Kd in test [1] worked out at 0.18 µM. Moreover, the EC50 in test [2] (setting [4]) amounted to 0.641 µM. Further, the IC50 in test [3] (setting [5]) was determined as 0.383 µM.

For `COc1c(O)c(C(N)=O)cc(-c2cn(CC(=O)Nc3cc(N4CCOC[C@@H]4C)nc(F)c3Cl)c3ncn(C)c(=O)c23)c1F` [Compound I-411], the Kd in test [1] is 0.0462 µM. The EC50 in test [2] (setting [4]) was determined as 0.771 µM. The IC50 in test [3] (setting [5]) is 1.12 µM.

For `Cn1cnc2c(c(-c3cc(Cl)c(O)c(C(N)=O)c3)cn2CC(=O)Nc2cc(N3CC4CC(C3)O4)ncc2Cl)c1=O` [Compound I-282], in test [1], the Kd was found to be 0.0213 µM. For the same molecule, the EC50 in test [2] (setting [4]) was found to be 0.669 µM. Besides, in test [3] (setting [5]), the IC50 was 0.489 µM.

As to `COCCN1CCN(c2cc(NC(=O)Cn3cc(-c4cc(Cl)c(O)c(C(N)=O)c4)c4c(=O)n(C)cnc43)c(Cl)cn2)[C@@H](C)C1` [Compound I-415], in test [1], binding was characterised by a dissociation constant (Kd) of 0.00595 µM. The EC50 in test [2] (setting [4]) came to 0.0872 µM. Further, the IC50 in test [3] (setting [5]) is 0.122 µM.

`Cc1nc2c(c(-c3cc(Cl)c(O)c(C(N)=O)c3)cn2CC(=O)Nc2cc(N3CCN(C4COC4)C[C@@H]3C)nc(F)c2Cl)c(=O)n1C` [Compound I-434] yielded a Kd in test [1] of 0.00545 µM. Besides, the EC50 in test [2] (setting [4]) came to 0.0381 µM. Further, in test [3] (setting [5]), the IC50 is 0.05 µM.

In turn, `Cc1cc(-c2cn(CC(=O)Nc3cc(N4CCOCC4)ncc3Cl)c3ncn(C)c(=O)c23)cc(C(N)=O)c1O` [Compound I-4, 5-(7-(2-((5-chloro-2-morpholinopyridin-4-yl)amino)-2-oxoethyl)-3-methyl-4-oxo-4,7-dihydro-3H-pyrrolo[2,3-d]pyrimidin-5-yl)-2-hydroxy-3-methylbenzamide] gave a Kd in test [1] of 0.279 µM. Besides, the EC50 in test [2] (setting [4]) was found to be 1.8 µM. Also, in test [3] (setting [5]), the IC50 came out at 0.525 µM.

As to `Cn1cnc2c(c(-c3cc(Cl)c(O)c(C(N)=O)c3)cn2CC(=O)Nc2cc3c(cc2Cl)OCCN3CCN2CCOCC2)c1=O` [Compound I-213], the Kd in test [1] was determined as 0.0186 µM. In addition, in test [2] (setting [4]), the 50% effective concentration (EC50) stood at 0.842 µM. Besides, in test [3] (setting [5]), the half-maximal inhibitory concentration (IC50) came out at 0.878 µM.

For `Cn1cnc2c(c(-c3cc(C(N)=O)c(O)c(Cl)c3F)cn2CC(=O)Nc2cc(N3CCOCC3)ncc2F)c1=O` [Compound I-196], the Kd in test [1] came out at 0.323 µM. Also, in test [2] (setting [4]), the EC50 was 6.34 µM. The IC50 in test [3] (setting [5]) turned out to be 10 µM.

In test [1], `Cn1cnc2c(c(-c3cc(Cl)c(O)c(C(N)=O)c3)cn2CC(=O)Nc2cc(N3CC4CCC(F)(F)C4C3)ncc2Cl)c1=O` (stereo not drawn) [Compound I-278] registered a Kd of 0.0425 µM. For the same molecule, in test [2] (setting [4]), the EC50 was 0.622 µM. Besides, in test [3] (setting [5]), the IC50 was determined as 1.13 µM.

Turning to `COc1cc(NC(=O)Cn2cc(-c3cc(Cl)c(O)c(C(N)=O)c3)c3c(=O)n(C)c(O)nc32)c(Cl)cn1` [Compound I-290], in test [1], the affinity, expressed as Kd, was 18.4 µM. The EC50 in test [2] (setting [4]) is 10 µM. Further, the IC50 in test [3] (setting [5]) is 10 µM.

Consider `Cn1cnc2c(c(-c3cc(Cl)c(O)c(C(N)=O)c3)cn2CC(=O)Nc2cc(N3CC4CC4C3)ncc2Cl)c1=O` (stereo not drawn) [Compound I-155], for which the Kd in test [1] worked out at 0.0326 µM. Moreover, in test [2] (setting [4]), the EC50 was 0.923 µM. In test [3] (setting [5]), the IC50 worked out at 1.55 µM.

In test [1], `CC(C)N1CCN(c2cc(NC(=O)Cn3cc(-c4cc(Cl)c(O)c(C(N)=O)c4)c4c(=O)n(C)c(C(F)(F)F)nc43)c(Cl)cn2)[C@@H](C)C1` [Compound I-274] showed a Kd of 0.138 µM. Also, the EC50 in test [2] (setting [4]) was found to be 0.669 µM. Moreover, the IC50 in test [3] (setting [5]) was 0.332 µM.

In the case of `C[C@@H](C1CC1)N1CCN(c2cc(NC(=O)Cn3cc(-c4cc(C(N)=O)c(O)c(F)c4F)c4c(=O)n(C)cnc43)c(Cl)c(F)n2)[C@@H](C)C1` [Compound I-454], in test [1], the Kd stood at 0.0135 µM. The EC50 in test [2] (setting [4]) is 0.306 µM. In test [3] (setting [5]), the IC50 was 0.244 µM.

`C[C@H]1COCCN1c1cc(NC(=O)Cn2cc(-c3cc(C(N)=O)c(O)c(F)c3F)c3c(=O)n(C)cnc32)c(F)cn1` [Compound I-397] came in with a Kd in test [1] of 0.0983 µM. In test [2] (setting [4]), the EC50 was 3.31 µM. In addition, in test [3] (setting [5]), the IC50 came out at 2.54 µM.

In test [1], `Cc1c(N2CCOCC2)ncc(F)c1NC(=O)Cn1cc(-c2cc(Cl)c(O)c(C(N)=O)c2)c2c(=O)n(C)cnc21` [Compound I-194] gave a Kd of 0.12 µM. In test [2] (setting [4]), the EC50 came out at 11 µM. Further, in test [3] (setting [5]), the IC50 worked out at 5.65 µM.

Molecule `CN(C1CCC(c2cc(NC(=O)Cn3cc(-c4cc(Cl)c(O)c(C(N)=O)c4)c4c(=O)n(C)cnc43)c(Cl)cn2)C1)S(C)(=O)=O` (stereo not drawn) [Compound I-148] showed a Kd in test [1] of 0.0209 µM. In test [2] (setting [4]), the EC50 is 1.31 µM. For the same molecule, in test [3] (setting [5]), the IC50 worked out at 0.541 µM.

Turning to `C[C@@H]1CCCN1c1cc(NC(=O)Cn2cc(-c3cc(Cl)c(O)c(C(N)=O)c3)c3c(=O)n(C)cnc32)c(Cl)cn1` [Compound I-135], binding in test [1] was put at a Kd of 0.069 µM. Also, the EC50 in test [2] (setting [4]) came out at 3.01 µM. For the same molecule, the IC50 in test [3] (setting [5]) worked out at 1.43 µM.

Molecule `C[C@H]1COCCN1c1cc(NC(=O)Cn2cc(-c3cc(Cl)c(O)c(C(N)=O)c3)c3c(=O)n(C)c(Cl)nc32)c(Cl)cn1` [Compound I-262] yielded a Kd in test [1] of 0.0228 µM. For the same molecule, the EC50 in test [2] (setting [4]) is 0.468 µM. In addition, the concentration for half-maximal inhibition (IC50) in test [3] (setting [5]) was found to be 0.389 µM.

In turn, `C[C@@H]1CN(c2cc(NC(=O)Cn3cc(-c4cc(Cl)c(O)c(C(N)=O)c4)c4c(=O)n(C)cnc43)c(Cl)cn2)C[C@H](C)O1` [Compound I-13] gave a Kd in test [1] of 0.022 µM. Moreover, in test [2] (setting [4]), the EC50 was found to be 0.17 µM. The IC50 in test [3] (setting [5]) was found to be 0.18 µM.

`Cn1cnc2c(c(-c3cc(Cl)c(O)c(C(N)=O)c3)cn2CC(=O)Nc2cc3cnn(C)c3cc2Cl)c1=O` [Compound I-181]: the Kd in test [1] amounted to 0.617 µM. Moreover, in test [2] (setting [4]), the EC50 was determined as 33 µM. Further, in test [3] (setting [5]), the IC50 was found to be 10 µM.

Regarding `CN(C1CCC(c2cc(NC(=O)Cn3cc(-c4cc(Cl)c(O)c(C(N)=O)c4)c4c(=O)n(C)cnc43)c(Cl)cn2)C1)S(C)(=O)=O` (stereo not drawn) [Compound I-149], binding in test [1] was put at a Kd of 0.0163 µM. The EC50 in test [2] (read-out: Luciferase-Assay EC50, SuDHL4-3xBCL6-TK-Luc cells, two days, high dose 10 uM) amounted to 0.725 µM. Moreover, in test [3] (read-out: Tumor Growth Inhibition in Karpas-422 (IC50), Karpas422 cells, six days, ATPlite), the concentration for half-maximal inhibition (IC50) stood at 0.617 µM.

In the case of `CN1CCOC2(CCN(c3cc(NC(=O)Cn4cc(-c5cc(C(N)=O)c(O)c(F)c5F)c5c(=O)n(C)cnc54)c(Cl)cn3)C2)C1` (stereo not drawn) [Compound I-403], in test [1], binding was characterised by a dissociation constant (Kd) of 0.0819 µM. For the same molecule, the EC50 in test [2] (setting [4]) is 5.54 µM. Further, the IC50 in test [3] (setting [5]) was found to be 3.32 µM.

In the case of `COC[C@H]1COCCN1c1cc(NC(=O)Cn2cc(-c3cc(Cl)c(O)c(C(N)=O)c3)c3c(=O)n(C)cnc32)c(Cl)cn1` [Compound I-151], in test [1], the Kd came to 0.0106 µM. For the same molecule, the EC50 in test [2] (setting [4]) is 0.168 µM. Further, the IC50 in test [3] (setting [5]) stood at 0.144 µM.

The values are drawn from patent publication US11518764B2, “Substituted heteroaryls as inhibitors of the BCL6 BTB domain protein-protein interaction” (Ontario Institute for Cancer Research (OICR), priority 2018, dated 2022).
